Measurements from PubChem BioAssay AID248 (DTP/NCI, 2004).
Where “and” joins values, the source holds several entries; their conditions need not be identical. Equal values may be shown once. Inconclusive results and toxic doses are left out. No stated cut-off is given here; in the data, active means T/C of 150% or more; inactive means T/C below 125%.

System: L1210 leukemia ip in BDF1 mice, survival T/C
Test: NCI In Vivo Anticancer Drug Screen. Data for tumor model L1210 Leukemia (intraperitoneal) in B6D2F1 (BDF1) mice
Conditions: endpoint: mean survival time, higher = longer survival
Method in brief: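 Ratio derived from survival: compound-dosed mice over vehicle-dosed mice, all bearing a transplantable tumor.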

[1] = dose: 25.0 mg/kg/injection, schedule: Q01DX009 (ip), vehicle: saline with Tween-80
[2] = dose: 50.0 mg/kg/injection, schedule: Q01DX009 (ip), vehicle: saline with Tween-80
[3] = dose: 100.0 mg/kg/injection, schedule: Q04DX003 (ip), vehicle: Klucel (hydroxypropylcellulose) (HPC)
[4] = dose: 200.0 mg/kg/injection, schedule: Q04DX003 (ip), vehicle: Klucel (hydroxypropylcellulose) (HPC)
[5] = dose: 400.0 mg/kg/injection, schedule: Q04DX003 (ip), vehicle: Klucel (hydroxypropylcellulose) (HPC)
[6] = dose: 100.0 mg/kg/injection, schedule: Q01DX009 (ip), vehicle: Klucel (hydroxypropylcellulose) (HPC)
[7] = dose: 200.0 mg/kg/injection, schedule: Q01DX009 (ip), vehicle: Klucel (hydroxypropylcellulose) (HPC)
[8] = dose: 400.0 mg/kg/injection, schedule: Q01DX009 (ip), vehicle: Klucel (hydroxypropylcellulose) (HPC)
[9] = dose: 100.0 mg/kg/injection, schedule: Q04DX003 (ip), vehicle: saline with Tween-80
[10] = dose: 200.0 mg/kg/injection, schedule: Q04DX003 (ip), vehicle: saline with Tween-80
[11] = dose: 400.0 mg/kg/injection, schedule: Q04DX003 (ip), vehicle: saline with Tween-80
[12] = dose: 100.0 mg/kg/injection, schedule: Q01DX009 (ip), vehicle: saline with Tween-80
[13] = dose: 200.0 mg/kg/injection, schedule: Q01DX009 (ip), vehicle: saline with Tween-80

Measured: T/C

O=C(O)c1cc([N+](=O)[O-])cc(P(=O)(O)O)c1
inactive: dose: 12.5 mg/kg/injection, schedule: Q01DX001 (ip), vehicle: saline 86 % of control | dose: 12.5 mg/kg/injection, schedule: Q04DX003 (ip), vehicle: saline 96 % of control | dose: 25.0 mg/kg/injection, schedule: Q01DX001 (ip), vehicle: saline 99 % of control | dose: 25.0 mg/kg/injection, schedule: Q04DX003 (ip), vehicle: saline 89 % of control | dose: 50.0 mg/kg/injection, schedule: Q01DX001 (ip), vehicle: saline 87 % of control | dose: 50.0 mg/kg/injection, schedule: Q04DX003 (ip), vehicle: saline 94 % of control | dose: 75.0 mg/kg/injection, schedule: Q01DX009 (ip), vehicle: saline 100 % of control | dose: 115.0 mg/kg/injection, schedule: Q01DX009 (ip), vehicle: saline 92 % of control

CC(=O)OCC1OC(N=C=S)C(OC(C)=O)C(OC(C)=O)C1OC(C)=O (stereo not drawn)
inactive: dose: 12.5 mg/kg/injection, schedule: Q01DX009 (ip), vehicle: saline with Tween-80 97 % of control | [1] 100 % of control | [2] 93 % of control

COc1c(O)c2c(c3cc(C(=O)N4CCc5c4c(O)c(OC)c4[nH]c(C(=O)N6CC7CC78C6=CC(=O)c6[nH]cc(C)c68)cc54)[nH]c13)CCN2C(N)=O (stereo not drawn)
inactive: dose: 6.25 micrograms/kg/injection, schedule: Q01DX009 (ip), vehicle: DMSO 124 % of control | dose: 12.5 micrograms/kg/injection, schedule: Q01DX009 (ip), vehicle: DMSO 111 % of control | dose: 100.0 micrograms/kg/injection, schedule: Q01DX009 (ip), vehicle: DMSO 96 % of control

C1=C/C2OC2CCCC/1 (stereo not drawn)
inactive: dose: 50.0 mg/kg/injection, schedule: Q01DX009 (ip), vehicle: saline 96 % of control | dose: 100.0 mg/kg/injection, schedule: Q01DX009 (ip), vehicle: saline 97 % of control | dose: 100.0 mg/kg/injection, schedule: Q04DX003 (ip), vehicle: saline 102 % of control | dose: 200.0 mg/kg/injection, schedule: Q01DX009 (ip), vehicle: saline 102 % of control | dose: 200.0 mg/kg/injection, schedule: Q04DX003 (ip), vehicle: saline 87 % of control | dose: 400.0 mg/kg/injection, schedule: Q04DX003 (ip), vehicle: saline 93 % of control

ClCCN(CC1C(c2ccccc2)C1c1ccccc1)C1CCCCC1 (stereo not drawn)
inactive: dose: 1.5 mg/kg/injection, schedule: Q04DX002 (ip), vehicle: Klucel (hydroxypropylcellulose) (HPC) 104 % of control | dose: 3.1 mg/kg/injection, schedule: Q04DX002 (ip), vehicle: Klucel (hydroxypropylcellulose) (HPC) 92 % of control | dose: 6.25 mg/kg/injection, schedule: Q04DX002 (ip), vehicle: Klucel (hydroxypropylcellulose) (HPC) 92 % of control

O=[N+]([O-])c1ccc(Cl)c(C(=S)N2CCCCC2)c1
inactive: [3] 99 % of control | [4] 96 % of control | [5] 96 % of control

COc1cccc(NC(=S)/C(=C(/[O-])c2ccc([N+](=O)[O-])cc2)[n+]2ccccc2)c1
inactive: [6] 97 % of control | [7] 98 % of control | [8] 94 % of control

O=C(Nc1ccc(Cl)c(Cl)c1)NC(CO)(CO)CO
inactive: dose: 100.0 mg/kg/injection, schedule: Q01DX001 (ip), vehicle: saline 100 % of control | dose: 200.0 mg/kg/injection, schedule: Q01DX001 (ip), vehicle: saline 94 % of control | dose: 400.0 mg/kg/injection, schedule: Q01DX001 (ip), vehicle: saline 94 % of control

c1ccc([Si]2(c3ccccc3)[Si](c3ccccc3)(c3ccccc3)[Si](c3ccccc3)(c3ccccc3)[Si](c3ccccc3)(c3ccccc3)[Si](c3ccccc3)(c3ccccc3)[Si]2(c2ccccc2)c2ccccc2)cc1
inactive: [9] 102 % of control | dose: 160.0 mg/kg/injection, schedule: Q04DX002 (ip), vehicle: saline with Tween-80 86 % of control | [10] 94 % of control | dose: 400.0 mg/kg/injection, schedule: Q04DX002 (ip), vehicle: saline with Tween-80 86 % of control | [11] 96 % of control

Cc1cccc(C)c1NC(=S)N(CCC#N)C(C)C
inactive: [6] 103 % of control | [7] 106 % of control | [8] 96 % of control

O=C(O)c1cccc(C2CCCCC2)c1
inactive: dose: 75.0 mg/kg/injection, schedule: Q01DX001 (ip), vehicle: other 106 % of control | dose: 150.0 mg/kg/injection, schedule: Q01DX001 (ip), vehicle: other 97 % of control | dose: 300.0 mg/kg/injection, schedule: Q01DX001 (ip), vehicle: other 101 % of control

CCCCCCCCCNC(C)=O
inactive: [6] 97 % of control | [7] 92 % of control

S=C(N/N=C/c1ccc(-c2ccccc2)cc1)Nc1ccccc1
inactive: [12] 86 % of control | [9] 97 % of control | [13] 88 % of control | [10] 100 % of control | [11] 94 % of control

O=[N+]([O-])c1ccc(N2CCCCC2)nc1
inactive: dose: 50.0 mg/kg/injection, schedule: Q01DX001 (ip), vehicle: carboxymethylcellulose (CMC) 115 % of control | dose: 100.0 mg/kg/injection, schedule: Q01DX001 (ip), vehicle: carboxymethylcellulose (CMC) 91 % of control | dose: 200.0 mg/kg/injection, schedule: Q01DX001 (ip), vehicle: carboxymethylcellulose (CMC) 115 % of control | dose: 400.0 mg/kg/injection, schedule: Q01DX001 (ip), vehicle: carboxymethylcellulose (CMC) 97 % of control

CC(=O)N(C)c1ccc(NC(=S)NC(=O)c2cccc([N+](=O)[O-])c2)cc1
inactive: [1] 97 % of control and 109 % of control | [2] 98 % of control and 108 % of control | dose: 100.0 mg/kg/injection, schedule: Q01DX001 (ip), vehicle: saline with Tween-80 97 % of control | dose: 100.0 mg/kg/injection, schedule: Q04DX002 (ip), vehicle: saline 93 % of control and 101 % of control | dose: 200.0 mg/kg/injection, schedule: Q01DX001 (ip), vehicle: saline with Tween-80 92 % of control | dose: 200.0 mg/kg/injection, schedule: Q04DX002 (ip), vehicle: saline 96 % of control and 97 % of control | dose: 400.0 mg/kg/injection, schedule: Q01DX001 (ip), vehicle: saline with Tween-80 92 % of control | dose: 400.0 mg/kg/injection, schedule: Q01DX009 (ip), vehicle: saline with Tween-80 93 % of control and 105 % of control | dose: 400.0 mg/kg/injection, schedule: Q04DX002 (ip), vehicle: saline 101 % of control and 104 % of control

O=[N+]([O-])c1ccc(/C=N\Nc2ccc([N+](=O)[O-])cn2)cc1
inactive: [2] 91 % of control | dose: 100.0 mg/kg/injection, schedule: Q01DX009 (ip), vehicle: saline sonified 92 % of control | [12] 95 % of control | [3] 94 % of control | dose: 200.0 mg/kg/injection, schedule: Q01DX009 (ip), vehicle: saline sonified 87 % of control | [13] 87 % of control | [4] 93 % of control | dose: 400.0 mg/kg/injection, schedule: Q01DX009 (ip), vehicle: saline sonified 95 % of control | [5] 101 % of control

CCCCN1C(=O)N(c2ccc(OCC)cc2)C2N(CCCC)C1C(C)(C)C2(C)C (stereo not drawn)
inactive: dose: 25.0 mg/kg/injection, schedule: Q04DX002 (ip), vehicle: saline with Tween-80 103 % of control | dose: 50.0 mg/kg/injection, schedule: Q04DX002 (ip), vehicle: saline with Tween-80 118 % of control | dose: 100.0 mg/kg/injection, schedule: Q04DX002 (ip), vehicle: saline with Tween-80 122 % of control

C1=Cc2ccccc2/C1=C/c1ccc(/C=C2\C=Cc3ccccc32)cc1
inactive: [9] 92 % of control | [10] 89 % of control | [11] 89 % of control
